In patent US20260347409A1, “CHEMICALLY MODIFIED POLYPEPTIDE” (SUZHOU GLENKOL PHARMA TECHNOLOGY CO., LTD., priority 2023, published 2026):
Where a SMILES comes first, the peptide text is derived from it. Where no end group is shown, it is not given here. [ ]: non-standard residue; d: D form. NMeY = CN[C@@H](Cc1ccc(O)cc1)C(=O)O

Experiments:
PC-12 cells = experiment: Cell viability of PC-12 neural cells under glutamate stimulation (excitotoxic cell death model, propidium iodide/Hoechst staining); format: cell-based, rat; conditions: for Normalized cell viability (%): 10 nM compound, 30 min pretreatment, then glutamate stimulation 24 h, normalized to positive control MK-801; for EC50: dose-response relationship in promoting the viability of PC-12 neurons, glutamate stimulation
Protocol: 1.1. Culture of PC-12 Cell Line and Establishment of Excitotoxic Cell Death Model
PC-12 cells (a […] cell line derived from rat adrenal medulla) were cultured in DMEM/F12 complete medium until eaching 80-90% confluence. The cells were then digested, collected, resuspended, and seeded at density of 5×10^4 cells per well in a 24-well plate precoated with coverslips. Following 26 hours of cell culture, excitotoxic cell death was induced by glutamate stimulation. For model establishment: an appropriate amount of glutamate was weighed and dissolved in DMEM/F12 medium to prepare a stock solution. After filtration, the stock solution was diluted with culture medium and administered to the cells via medium replacement. The cells were further incubated for 24 hours after administration.
1.2 Administration of Small Molecules
Prior to glutamate modeling, cells incubated as described in the previous step were pretreated with 10 nM of the polypeptide compound according to the present application for 30 minutes, followed by glutamate stimulation.
1.3. Propidium Iodide Staining
Cells treated with the polypeptide compound according to the present application were stained with propidium iodide to assess cell death. After discarding the culture medium, the cells were washed with PBS, and propidium iodide/Hoechst was added. After incubating for 30 minutes, the cells were removed and the staining solution was discarded. After washing with PBS, the cells were fixed and mounted, and subjected to image acquisition under a fluorescence microscope. The number of propidium iodide-positive cells and Hoechst-positive cells in the acquired images was counted to calculate the cell viability. MK-801 was used as the positive control compound. The normalized cell viability was calculated using the following formula: (cell viability of the compound group −cell viability of the glutamate group)/(cell viability of the positive control group −cell viability of the glutamate group)×100%.
Based on the above dose-response studies of the compound, the inhibitory effects of different small-molecule compounds at the same dose (10 nM) against excitotoxic death in PC-12 neurons cells were further compared.
Based on this, the dose-response relationship of the neuroprotective effect of the polypeptide compounds according to the present application on PC-12 neural cells was analyzed.

[1] = Pharmacokinetic characteristics in rats after intravenous administration (plasma, LC-MS/MS); format: in vivo; conditions: SD rats, intravenous (tail vein), 10 mg/kg; for MRT inf: rat
Protocol: Experimental Example 2: Pharmacokinetic Characteristics of Various Compounds in Rats
Intravenous administration: Three SD rats per group were administered the compounds of Example 1, Example 2, Example 3, Example 6, Example 7, Example 17, and Example 19 via the tail vein, respectively, at a dose of 10 mg/kg. all SD rats were allowed free access to food and water after administration. Plasma was collected 3 min, 10 min, 30 min, 1 h, 2 h, 6 h, 10 h, and 24 h after administration, with 3 rats per time point.
Sample processing: Whole blood was anticoagulated with EDTA-K2. Within 30 minutes of collection, the blood was centrifuged at 3000 g for 10 minutes at 2-8 °C. After centrifugation, the separated plasma was transferred to new 1.5 mL centrifuge tubes and stored at −80 °C.
Analytical method: The concentrations of each compounds in rat plasma were determined by LC-MS/MS using Shimadzu LC30AD and AB Sciex QTRAP 6500+instruments. The relevant pharmacokinetic parameters after administration were calculated.

Question: What does the source list for `CN[C@@H](Cc1ccc(O)cc1)C(=O)NCC(=O)N[C@@H](CCCNC(=N)N)C(=O)N[C@@H](CCCCN)C(=O)N[C@@H](CCCCN)C(=O)N[C@@H](CCCNC(=N)N)C(=O)N[C@@H](CCCNC(=N)N)C(=O)N[C@@H](CCC(N)=O)C(=O)N[C@@H](CCCNC(=N)N)C(=O)N[C@@H](CCCNC(=N)N)C(=O)N[C@@H](CCCNC(=N)N)C(=O)N[C@@H](CCCCN)C(=O)N[C@@H](CCCCN)C(=O)N[C@@H](CC(N)=O)C(=O)N[C@@H](CCCNC(=N)N)C(=O)N[C@@H](CC(N)=O)C(=O)N[C@@H](CCCCN)C(=O)N[C@@H](CC(C)C)C(=O)N[C@@H](CCCNC(=N)N)C(=O)N[C@@H](CCCNC(=N)N)C(=O)N[C@@H](CCC(N)=O)C(=O)N[C@@H](Cc1c[nH]cn1)C(=O)N[C@@H](CO)C(=O)N[C@@H](Cc1ccc(O)cc1)C(=O)O` [Example 2] (H-[NMeY]GRKKRRQRRRKKNRNKLRRQHSY-OH)?
Answer: Normalized cell viability (%) (PC-12 cells): 65.56%; EC50 (PC-12 cells): 12.6 nM; T1/2 [1]: 1.73 h; Vss [1]: 3.94 L/kg; MRT inf [1]: 1.84 h

Question: Which results are given for `CN[C@@H](Cc1ccc(O)cc1)C(=O)NCC(=O)N[C@@H](CCCNC(=N)N)C(=O)N[C@@H](CCCCN)C(=O)N[C@@H](CCCCN)C(=O)N[C@@H](CCCNC(=N)N)C(=O)N[C@@H](CCCNC(=N)N)C(=O)N[C@@H](CCC(=O)O)C(=O)N[C@@H](CCCNC(=N)N)C(=O)N[C@@H](CCCNC(=N)N)C(=O)N[C@@H](CCCNC(=N)N)C(=O)N[C@@H](CCCCN)C(=O)N[C@@H](CCCCN)C(=O)N[C@@H](CC(=O)O)C(=O)N[C@@H](CCCNC(=N)N)C(=O)N[C@@H](CC(=O)O)C(=O)N[C@@H](CCCCN)C(=O)N[C@@H](CC(C)C)C(=O)N[C@@H](CCCNC(=N)N)C(=O)N[C@@H](CCCNC(=N)N)C(=O)N[C@@H](CCC(=O)O)C(=O)N[C@@H](Cc1c[nH]cn1)C(=O)N[C@@H](CO)C(=O)N[C@@H](Cc1ccc(O)cc1)C(N)=O` [Example 19] (H-[NMeY]GRKKRRERRRKKDRDKLRREHSY-NH2)?
Answer: Normalized cell viability (%) (PC-12 cells): 87.71%; T1/2 [1]: 1.16 h; Vss [1]: 9.11 L/kg; MRT inf [1]: 1.73 h

Question: With “YGRKKRRQRRRKKNRNKLRRQHSY [Example 1, reference compound]” as the compound, how does the “Normalized cell viability (%)” value (PC-12 cells) read?
Answer: Its value is 41.00%.

Question: What about the EC50 (PC-12 cells) of the same compound?
Answer: Its EC50 is 23.6 nM.

Question: What about the “T1/2” value [1] of the same compound?
Answer: The value was 0.76 h.

Question: And the “Vss” value [1]?
Answer: The value was 1.29 L/kg.

Question: What about the MRT inf [1] of the same compound?
Answer: The MRT inf was 0.87 h.
